Laboratory results taken from ChEMBL document CHEMBL1201862, “PubChem BioAssay data set” (2004).
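Tested at 5 concentrations; 48 h exposure; 96-well plates; endpoints linearly interpolated, else capped at highest concentration. Here, GI50 denotes the concentration required for 50% inhibition of growth.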 Activity calls are given as the source filed them. Rule as the data show it: active = GI50 up to about 1.1 µM and inactive = higher.

Experiments:
Assay in all cases: NCI tumour cell line growth inhibition, 48 h
Hs-578T = test system: Hs-578T
PC-3 = test system: PC-3
MCF7 = test system: MCF7
MDA-MB-231 = test system: MDA-MB-231
XF498 = test system: XF498
DLD-1 = test system: DLD-1
DMS-114 = test system: DMS-114
HOP-18 = test system: HOP-18

Structure (SMILES)	GI50 (Hs-578T)	GI50 (PC-3)	GI50 (MCF7)	GI50 (MDA-MB-231)	GI50 (XF498)	GI50 (DLD-1)	GI50 (DMS-114)	GI50 (HOP-18)
O=C1CC2(CCN(CC3COc4ccccc4O3)CC2)C(=O)N1N1CCCCCC1 (stereo unspecified)	44.1 µM (inactive)	27.5 µM (inactive)	37.2 µM (inactive)	> 100 µM (inactive)	–	–	–	–
O=C(NN=C1CCN(Cc2ccccc2)CC1)C(O)(c1ccccc1)c1ccccc1	> 100 µM (inactive)	–	> 100 µM (inactive)	> 100 µM (inactive)	–	–	–	–
Cc1cc(NN)nc2[nH]nc(N)c12	> 100 µM (inactive)	> 100 µM (inactive)	> 100 µM (inactive)	45.4 µM (inactive)	–	–	–	–
CSC(=S)Nc1cc(C)ccn1	> 100 µM (inactive)	> 100 µM (inactive)	> 100 µM (inactive)	33.1 µM (inactive)	–	–	–	–
O=C(OCc1ccccc1)c1ccccc1-c1c2ccc(=O)cc-2oc2cc(OCc3ccccc3)ccc12	–	–	–	–	15.7 µM (inactive)	5.01 µM (inactive)	–	–
CCOc1ccc2nc3cc(/N=N/c4ccc(N)nc4N)ccc3c(N)c2c1	3.13 µM (inactive)	3.57 µM (inactive)	3.15 µM (inactive)	1.54 µM (inactive)	–	–	–	–
CC1=NC(=N)N=C(C)C1/N=N/c1ccc2[nH]c(C)nc2c1 (stereo unspecified)	> 100 µM (inactive)	> 100 µM (inactive)	> 100 µM (inactive)	> 100 µM (inactive)	–	–	–	–
CC(=O)NC(Cc1ccc(OP(=O)(OCc2ccc([N+](=O)[O-])o2)N(C)CCCCCl)cc1)C(=O)NC(C)c1ccc(OCC2CCCCC2)c(C(N)=O)c1 (stereo unspecified)	2.14 µM (inactive)	2.79 µM (inactive)	2.25 µM (inactive)	2.05 µM (inactive)	–	–	–	–
Oc1nnc2c(-c3ccccc3)n[nH]c2n1	–	–	–	–	–	> 100 µM (inactive)	> 100 µM (inactive)	–
COC(=O)C(=O)C(C(=O)C(=O)Nc1cccc(OC)c1)c1nc2ccc(Cl)cc2nc1O (stereo unspecified)	72.4 µM (inactive)	> 100 µM (inactive)	> 100 µM (inactive)	> 100 µM (inactive)	–	–	–	–
O=C(O)c1ccc(Nc2nc3nn(Cc4ccccc4)cc3c(=O)s2)cc1	–	–	–	–	–	> 100 µM (inactive)	> 100 µM (inactive)	74.8 µM (inactive)
CC(C)C1=CCC2C(=C1)CCC1C(C)(C(=O)O)CCCC21C (stereo unspecified)	> 100 µM (inactive)	> 100 µM (inactive)	> 100 µM (inactive)	> 100 µM (inactive)	–	–	–	–
Cc1ccccc1C(=O)N/N=C/c1ccc(Sc2nccn2C)c([N+](=O)[O-])c1	85.9 µM (inactive)	67.8 µM (inactive)	> 100 µM (inactive)	72.3 µM (inactive)	–	–	–	–
CC1(C)OCC2OC3([C@@H]4OC(C)(C)O[C@H]4CO)OC(C)(C)OC3C2O1 (stereo partly specified)	–	> 100 µM (inactive)	> 100 µM (inactive)	> 100 µM (inactive)	–	–	–	–
C/C=C/[P+](c1ccccc1)(c1ccccc1)c1ccccc1	0.337 µM (active)	0.962 µM (active)	1.18 µM (inactive)	2.58 µM (inactive)	–	–	–	–
COc1ccc(C(=O)/C=C/c2ccc(OCCSCCCCCCCCCCSCCOc3ccc(/C=C/C(=O)c4ccc(OC)c(OC)c4)cc3)cc2)cc1OC	> 100 µM (inactive)	> 100 µM (inactive)	> 100 µM (inactive)	> 100 µM (inactive)	–	–	–	–
COc1ccc(/C=C2\N/C(=N/N)N=C2Cl)cc1	> 100 µM (inactive)	> 100 µM (inactive)	> 100 µM (inactive)	> 100 µM (inactive)	–	–	–	–
Oc1cccc(C2SCc3nc4ccccc4n32)c1 (stereo unspecified)	–	–	–	–	–	44.3 µM (inactive)	31 µM (inactive)	0.42 µM (active)
CC(C)=CCC/C(C)=C/Cc1c2c(c3oc(-c4ccc(O)c(O)c4)c(O)c(=O)c3c1O)C=CC(C)(C)O2	9.46 µM (inactive)	5.16 µM (inactive)	2.79 µM (inactive)	5.74 µM (inactive)	–	–	–	–
O=C(CCC(=O)Nc1cccc(Cl)c1)CC(=O)c1ccc(F)cc1	–	–	–	–	> 100 µM (inactive)	> 100 µM (inactive)	–	–
CCOC(C)OCC#CCCBr (stereo unspecified)	–	–	–	–	–	> 100 µM (inactive)	79.1 µM (inactive)	> 100 µM (inactive)
C#CCOC(=O)C(N)CS (stereo unspecified)	> 100 µM (inactive)	> 100 µM (inactive)	> 100 µM (inactive)	> 100 µM (inactive)	–	–	–	–
O=[N+]([O-])C(=C(NCc1ccccc1)NCc1ccccc1)C(Cl)=C(Cl)Cl	49.2 µM (inactive)	32.1 µM (inactive)	41.1 µM (inactive)	29.4 µM (inactive)	–	–	–	–
CC(=O)O[C@]12CCCCCC1C1(O)C(O)CCCCC12 (stereo partly specified)	–	–	–	–	> 100 µM (inactive)	–	> 100 µM (inactive)	–
CC(=O)OC12CC[N+]3(C)CCCCC3C1=Nc1ccccc12 (stereo unspecified)	> 100 µM (inactive)	> 100 µM (inactive)	> 100 µM (inactive)	> 100 µM (inactive)	–	–	–	–
CCCCCCCCCCCCCCCCOCC(Cl)CP(=O)(O)OP(=O)(O)OCC1OC(n2cnc3c(N)ncnc32)C(O)C1O (stereo unspecified)	> 100 µM (inactive)	> 100 µM (inactive)	> 100 µM (inactive)	> 100 µM (inactive)	–	–	–	–
CCC(CCCCC1CC[C@H]2CC(=O)C[C@@H]12)OC (stereo partly specified)	–	–	> 100 µM (inactive)	> 100 µM (inactive)	–	–	–	–
C=C1C(=O)O[C@@H]2/C=C(/C)[C@@H](OC(C)=O)C[C@@H](O)/C(C)=C\[C@@H](OC(=O)[C@]3(C)O[C@@H]3C)[C@@H]12	42.6 µM (inactive)	17.6 µM (inactive)	5.79 µM (inactive)	16.3 µM (inactive)	–	–	–	–
CN(C)Cc1cc(C(=O)/C=C/c2ccc(Cl)cc2Cl)cc(CN(C)C)c1O	3.82 µM (inactive)	1.65 µM (inactive)	2.33 µM (inactive)	2.11 µM (inactive)	–	–	–	–
